Laboratory results as given in ChEMBL document CHEMBL1201862, “PubChem BioAssay data set” (2004).
The source made the active and inactive calls.

Experiments:
[1] = molecular target: T1, Carboxy-terminal domain RNA polymerase II polypeptide A small phosphatase 1 (Homo sapiens, UniProt Q9GZU7); assay: inhibitors of CTDSP1, concentration-response testing, biochemical assay, absorbance-based, actives from ultra-high-throughput screening (AID 540297); format: functional
T1 sequence (Q9GZU7 whole entry): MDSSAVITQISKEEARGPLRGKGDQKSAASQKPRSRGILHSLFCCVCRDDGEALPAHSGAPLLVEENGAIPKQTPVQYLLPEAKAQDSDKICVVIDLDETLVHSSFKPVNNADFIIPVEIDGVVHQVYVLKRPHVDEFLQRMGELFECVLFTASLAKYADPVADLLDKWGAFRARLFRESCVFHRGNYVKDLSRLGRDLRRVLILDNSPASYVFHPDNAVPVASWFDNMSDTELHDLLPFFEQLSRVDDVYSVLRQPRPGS

[2] = molecular target: T2, Low molecular weight phosphotyrosine protein phosphatase (Homo sapiens, UniProt P24666); format: functional; conditions: read-out: IC50_Mean
T2 sequence (P24666 whole entry): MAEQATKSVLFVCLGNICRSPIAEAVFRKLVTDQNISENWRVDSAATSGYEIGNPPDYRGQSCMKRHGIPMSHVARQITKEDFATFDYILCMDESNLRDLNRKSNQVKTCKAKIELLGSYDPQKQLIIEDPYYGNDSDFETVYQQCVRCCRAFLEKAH

[3] = molecular target: T2, Low molecular weight phosphotyrosine protein phosphatase; format: functional; conditions: read-out: IC50_Mean; remark: listed apart in the source
[4] = molecular target: Beta-galactosidase (Escherichia coli, UniProt Q8VNN2); assay: Dose response counterscreen for EBI2 assay utilizing the enzyme, b-galactosidase.; format: functional
[5] = molecular target: T3, Methionyl-tRNA synthetase, putative (Trypanosoma brucei brucei, UniProt Q38C91); format: functional, Trypanosoma brucei brucei strain 927/4 GUTat10.1
T3 sequence (Q38C91 whole entry): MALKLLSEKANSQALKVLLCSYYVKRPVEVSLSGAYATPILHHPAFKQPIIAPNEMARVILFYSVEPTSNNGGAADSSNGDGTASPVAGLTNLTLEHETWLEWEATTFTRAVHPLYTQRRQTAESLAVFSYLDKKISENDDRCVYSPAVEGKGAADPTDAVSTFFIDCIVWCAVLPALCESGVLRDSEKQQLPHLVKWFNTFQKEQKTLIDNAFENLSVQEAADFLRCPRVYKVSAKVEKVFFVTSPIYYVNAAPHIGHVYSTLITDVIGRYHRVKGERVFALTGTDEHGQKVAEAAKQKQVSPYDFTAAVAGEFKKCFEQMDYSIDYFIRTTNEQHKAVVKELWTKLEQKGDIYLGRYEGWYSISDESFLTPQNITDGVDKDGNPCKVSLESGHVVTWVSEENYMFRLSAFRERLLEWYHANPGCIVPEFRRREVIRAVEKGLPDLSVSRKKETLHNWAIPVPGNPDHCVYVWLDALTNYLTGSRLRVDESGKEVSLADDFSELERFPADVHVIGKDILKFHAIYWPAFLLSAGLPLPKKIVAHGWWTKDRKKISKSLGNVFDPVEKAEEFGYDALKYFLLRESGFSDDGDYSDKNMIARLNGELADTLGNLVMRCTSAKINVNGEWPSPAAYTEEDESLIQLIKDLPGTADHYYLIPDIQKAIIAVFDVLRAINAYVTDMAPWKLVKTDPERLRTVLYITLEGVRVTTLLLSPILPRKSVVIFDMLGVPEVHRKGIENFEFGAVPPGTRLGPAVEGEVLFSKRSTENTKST

[6] = Counterscreen for inhibitors of Trypanosoma brucei methionyl tRNA synthetase (MetRS): Luminescence-based cell-based high throughput dose response assay to identify compounds that are cytotoxic to Jurkat human T lymphocyte cells.; format: functional
[7] = molecular target: T3, Methionyl-tRNA synthetase, putative; format: functional, Trypanosoma brucei brucei strain 927/4 GUTat10.1; remark: listed apart in the source
[8] = molecular target: T4, Sentrin-specific protease 1 (Homo sapiens, UniProt Q9P0U3); assay: Dose response confirmation of small molecule inhibitors of the catalytic domain of the SUMO protease, SENP1 in a FRET assay.; format: functional; conditions: read-out: IC50_Mean
T4 sequence (Q9P0U3 whole entry): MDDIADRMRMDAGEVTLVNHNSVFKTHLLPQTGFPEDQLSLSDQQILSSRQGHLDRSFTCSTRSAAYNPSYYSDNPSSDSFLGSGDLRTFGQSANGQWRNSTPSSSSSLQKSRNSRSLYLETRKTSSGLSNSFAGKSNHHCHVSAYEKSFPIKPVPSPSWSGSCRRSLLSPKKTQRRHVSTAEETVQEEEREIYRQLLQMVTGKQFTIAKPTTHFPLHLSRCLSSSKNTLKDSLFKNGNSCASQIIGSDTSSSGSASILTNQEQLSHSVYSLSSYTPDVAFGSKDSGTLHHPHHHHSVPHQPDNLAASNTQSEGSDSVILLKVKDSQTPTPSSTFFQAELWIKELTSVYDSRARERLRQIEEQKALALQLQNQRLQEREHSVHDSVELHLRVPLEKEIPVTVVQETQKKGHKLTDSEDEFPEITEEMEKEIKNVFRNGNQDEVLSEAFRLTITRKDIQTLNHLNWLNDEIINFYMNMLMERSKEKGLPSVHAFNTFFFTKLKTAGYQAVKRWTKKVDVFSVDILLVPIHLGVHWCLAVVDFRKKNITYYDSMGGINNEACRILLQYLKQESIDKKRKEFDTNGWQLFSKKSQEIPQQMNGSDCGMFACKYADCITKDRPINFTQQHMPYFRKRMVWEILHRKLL

[9] = molecular target: T4, Sentrin-specific protease 1; assay: potency of human SENP1 inhibitors, dose response, biochemical, kinetic FRET (AID 651697); format: functional; conditions: read-out: IC50_Mean
[10] = molecular target: T5, RNA-binding protein pos-1 (Caenorhabditis elegans, UniProt G5EF15); assay: inhibitors of POS-1/mex-3 RNA binding, dose response, biochemical, fluorescence polarization (AID 1964);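 further: purified POS-1 fused to maltose binding protein made in E. coli; potency of compounds blocking POS-1 binding to fluorescent RNA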
T5 sequence (G5EF15 whole entry): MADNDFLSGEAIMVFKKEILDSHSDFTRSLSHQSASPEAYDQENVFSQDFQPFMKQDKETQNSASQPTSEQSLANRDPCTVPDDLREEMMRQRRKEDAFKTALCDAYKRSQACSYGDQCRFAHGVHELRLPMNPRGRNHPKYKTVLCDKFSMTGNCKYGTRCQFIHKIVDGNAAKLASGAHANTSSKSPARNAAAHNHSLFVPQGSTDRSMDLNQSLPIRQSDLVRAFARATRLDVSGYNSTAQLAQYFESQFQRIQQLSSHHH

[11] = molecular target: T6, Zinc finger protein mex-5 (Caenorhabditis elegans, UniProt Q9XUB2); assay: MEX-5/TCR-2 RNA interaction inhibitors, dose response, biochemical, C. elegans, fluorescence polarization (AID 1960)
T6 sequence (Q9XUB2 whole entry): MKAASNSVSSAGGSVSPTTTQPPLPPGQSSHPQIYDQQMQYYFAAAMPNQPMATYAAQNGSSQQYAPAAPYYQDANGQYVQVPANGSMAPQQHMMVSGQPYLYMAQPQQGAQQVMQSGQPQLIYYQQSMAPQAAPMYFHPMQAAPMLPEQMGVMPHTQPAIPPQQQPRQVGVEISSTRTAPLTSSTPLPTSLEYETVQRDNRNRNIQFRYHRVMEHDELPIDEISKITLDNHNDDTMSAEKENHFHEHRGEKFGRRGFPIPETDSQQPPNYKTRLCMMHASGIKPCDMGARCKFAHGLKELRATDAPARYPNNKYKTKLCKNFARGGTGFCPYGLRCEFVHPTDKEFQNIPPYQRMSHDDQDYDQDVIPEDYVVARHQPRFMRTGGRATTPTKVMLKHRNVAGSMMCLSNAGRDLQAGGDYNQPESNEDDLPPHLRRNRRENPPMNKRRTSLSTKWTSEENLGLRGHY

[12] = molecular target: Steroidogenic factor 1 (Homo sapiens, UniProt Q13285); assay: Counterscreen for inverse agonists of the liver receptor homolog-1 (LRH-1; NR5A2): Luminescence-based cell-based high throughput dose response assay to identify inverse agonists of the Steroidogenic Factor 1 Nuclear Receptor (SF1; NR5A1).; format: functional
[13] = StAR promoter reporter inhibition counter-screen, dose response, counter-screen for LRH-1 inverse agonist project, cell-based, luminescence, luciferase reporter (AID 651969); format: functional
[14] = molecular target: Nuclear receptor subfamily 5 group A member 2 (Homo sapiens, UniProt O00482); format: functional, cell-based;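 further: HEK293T cells transfected with LRH-1 and a StAR promoter luciferase reporter; potency for inhibitors that lower LRH-1 driven reporter light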
[15] = molecular target: T7, Long-chain-fatty-acid--AMP ligase FadD28 (Mycobacterium tuberculosis, UniProt P9WQ59); assay: Fluorescence polarization aasay to screen for inhibitors that compete for the binding of FadD28 to a bisubstrate Measured in Biochemical System Using Plate Reader - 2147-01_Inhibitor_Dose_CherryPick_Activity.; format: functional, Mycobacterium tuberculosis H37Rv
T7 sequence (P9WQ59 whole entry): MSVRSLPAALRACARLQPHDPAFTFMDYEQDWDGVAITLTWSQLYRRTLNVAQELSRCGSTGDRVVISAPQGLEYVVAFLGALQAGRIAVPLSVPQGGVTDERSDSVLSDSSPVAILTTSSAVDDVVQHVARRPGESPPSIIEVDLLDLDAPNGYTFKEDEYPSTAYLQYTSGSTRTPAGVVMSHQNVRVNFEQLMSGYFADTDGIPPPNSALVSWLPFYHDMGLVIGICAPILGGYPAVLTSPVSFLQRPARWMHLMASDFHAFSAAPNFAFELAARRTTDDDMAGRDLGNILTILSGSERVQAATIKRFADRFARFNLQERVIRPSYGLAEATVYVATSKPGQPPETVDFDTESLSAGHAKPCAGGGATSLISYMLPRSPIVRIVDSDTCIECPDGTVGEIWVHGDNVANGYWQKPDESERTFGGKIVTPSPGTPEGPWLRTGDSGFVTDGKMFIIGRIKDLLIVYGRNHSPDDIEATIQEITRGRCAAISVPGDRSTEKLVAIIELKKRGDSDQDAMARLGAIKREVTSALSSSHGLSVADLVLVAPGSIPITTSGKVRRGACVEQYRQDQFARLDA

[16] = inhibitors of intracellular T. cruzi replication, confirmation, NIH3T3 host cells, beta-gal luminescence (AID 2044); format: functional, cell-based;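 further: intracellular parasites grown in NIH/3T3 mouse fibroblasts as host cells; luminescent beta-galactosidase reporter signal from transgenic T. cruzi replicating inside host cells; inhibitors lower the luminescence signal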
[17] = cytotoxicity toward NIH3T3 fibroblasts, dose response, counter-screen, cell-based, ATP luminescence, mouse fibroblasts (AID 2010); format: functional;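 further: cells exposed to compound for about 90 hours before reading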
[18] = miR-122 activators in hepatoma reporter cells, dose response, cell-based, Huh7 psiCHECK-miR122, Renilla luciferase, cherry-picked (AID 651956); format: functional;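 further: huh7 hepatoma cells stably carrying a psiCHECK-2 miR-122 sensor plasmid; renilla luciferase signal reporting endogenous miR-122 activity after 48 h compound exposure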
[19] = NIH:OVCAR-3 ovarian cancer cell cytotoxicity, dose response, PAX8 inhibitor project, plate reader, dry powder samples (AID 743044); format: functional, cell-based
[20] = cytotoxicity in OVCAR8 ovarian cancer cells, dose response, PAX8 project, cell-based, plate reader, dry powder samples (AID 743197); format: functional; conditions: OVCAR-8
[21] = molecular target: Paired box protein Pax-8 (Homo sapiens, UniProt Q06710); assay: inhibitors of PAX8-driven TPO luciferase reporter, dose response, RMG-I cells, cherry-pick (AID 687027); format: functional, cell-based;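 further: luciferase reporter driven by Pax8 target thyroperoxidase promoter measured by SteadyGlo luminescence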
Paired box protein Pax-8, sequence (Q06710 whole entry): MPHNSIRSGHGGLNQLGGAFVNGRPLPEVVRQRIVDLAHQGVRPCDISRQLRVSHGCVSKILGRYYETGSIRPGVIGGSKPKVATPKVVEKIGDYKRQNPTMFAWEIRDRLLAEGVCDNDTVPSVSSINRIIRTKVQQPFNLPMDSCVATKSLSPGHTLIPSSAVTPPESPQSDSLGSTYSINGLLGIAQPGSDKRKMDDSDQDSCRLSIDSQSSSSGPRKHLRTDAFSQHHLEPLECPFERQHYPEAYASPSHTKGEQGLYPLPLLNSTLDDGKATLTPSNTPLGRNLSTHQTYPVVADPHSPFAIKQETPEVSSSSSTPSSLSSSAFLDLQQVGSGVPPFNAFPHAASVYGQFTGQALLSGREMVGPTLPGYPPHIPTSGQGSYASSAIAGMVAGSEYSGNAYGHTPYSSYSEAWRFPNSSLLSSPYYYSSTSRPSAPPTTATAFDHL

Beta-galactosidase, sequence (Q8VNN2 whole entry): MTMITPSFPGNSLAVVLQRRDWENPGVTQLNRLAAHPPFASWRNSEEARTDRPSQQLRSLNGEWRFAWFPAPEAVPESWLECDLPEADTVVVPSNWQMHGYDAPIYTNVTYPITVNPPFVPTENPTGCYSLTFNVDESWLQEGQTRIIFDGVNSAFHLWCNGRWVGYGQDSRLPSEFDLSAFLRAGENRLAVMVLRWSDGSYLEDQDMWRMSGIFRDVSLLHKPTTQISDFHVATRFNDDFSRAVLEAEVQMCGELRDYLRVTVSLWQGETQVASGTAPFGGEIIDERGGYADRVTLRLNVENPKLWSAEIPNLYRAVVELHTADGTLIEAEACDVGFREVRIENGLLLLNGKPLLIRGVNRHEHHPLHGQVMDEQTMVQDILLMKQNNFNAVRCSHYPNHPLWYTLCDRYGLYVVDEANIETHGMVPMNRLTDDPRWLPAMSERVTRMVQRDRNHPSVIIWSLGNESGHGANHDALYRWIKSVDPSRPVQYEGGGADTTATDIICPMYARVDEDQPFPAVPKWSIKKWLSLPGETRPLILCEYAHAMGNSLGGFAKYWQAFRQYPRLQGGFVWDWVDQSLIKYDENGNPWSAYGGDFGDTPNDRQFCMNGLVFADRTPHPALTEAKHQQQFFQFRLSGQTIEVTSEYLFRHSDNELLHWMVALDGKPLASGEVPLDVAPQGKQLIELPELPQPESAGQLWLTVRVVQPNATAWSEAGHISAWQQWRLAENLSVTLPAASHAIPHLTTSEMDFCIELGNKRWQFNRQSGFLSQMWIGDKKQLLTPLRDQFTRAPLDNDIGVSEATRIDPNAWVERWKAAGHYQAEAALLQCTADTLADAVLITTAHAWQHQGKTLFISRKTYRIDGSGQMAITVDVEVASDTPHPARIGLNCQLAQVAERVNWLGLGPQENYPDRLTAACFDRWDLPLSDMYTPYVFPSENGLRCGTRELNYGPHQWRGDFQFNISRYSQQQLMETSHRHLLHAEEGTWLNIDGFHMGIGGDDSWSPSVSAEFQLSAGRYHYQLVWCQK
Nuclear receptor subfamily 5 group A member 2, sequence (O00482 whole entry): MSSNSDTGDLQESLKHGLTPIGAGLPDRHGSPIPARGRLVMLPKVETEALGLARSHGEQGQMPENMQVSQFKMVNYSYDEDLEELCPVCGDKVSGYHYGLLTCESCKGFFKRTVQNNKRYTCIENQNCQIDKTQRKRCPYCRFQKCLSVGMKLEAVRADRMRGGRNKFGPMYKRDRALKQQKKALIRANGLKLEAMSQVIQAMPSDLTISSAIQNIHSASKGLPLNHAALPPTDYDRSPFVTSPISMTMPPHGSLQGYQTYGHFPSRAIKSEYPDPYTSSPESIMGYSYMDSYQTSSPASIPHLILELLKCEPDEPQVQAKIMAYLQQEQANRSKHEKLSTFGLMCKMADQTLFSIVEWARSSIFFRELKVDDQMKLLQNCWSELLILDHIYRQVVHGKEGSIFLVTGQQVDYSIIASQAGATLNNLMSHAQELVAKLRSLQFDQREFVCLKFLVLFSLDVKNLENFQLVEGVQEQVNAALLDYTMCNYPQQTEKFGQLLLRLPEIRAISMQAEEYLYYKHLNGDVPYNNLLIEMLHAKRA
Steroidogenic factor 1, sequence (Q13285 whole entry): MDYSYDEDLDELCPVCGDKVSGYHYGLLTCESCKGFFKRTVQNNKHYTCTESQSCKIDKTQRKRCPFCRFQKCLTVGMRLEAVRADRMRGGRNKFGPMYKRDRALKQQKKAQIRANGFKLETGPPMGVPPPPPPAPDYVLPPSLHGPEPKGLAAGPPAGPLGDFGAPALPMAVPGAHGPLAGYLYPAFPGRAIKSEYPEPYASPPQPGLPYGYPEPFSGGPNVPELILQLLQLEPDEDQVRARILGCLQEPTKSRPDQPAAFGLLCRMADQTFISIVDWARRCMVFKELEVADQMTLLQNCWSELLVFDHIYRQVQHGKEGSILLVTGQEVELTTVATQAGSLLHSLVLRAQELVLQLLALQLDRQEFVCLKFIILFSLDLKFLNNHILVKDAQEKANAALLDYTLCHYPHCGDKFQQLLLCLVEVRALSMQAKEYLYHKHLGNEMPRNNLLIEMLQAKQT

Structure (SMILES): O=C(CSc1nc(-c2ccccc2)nc2ccc(F)cc12)Nc1cccc(C(=O)O)c1
- IC50 [1]: 6.6 µM (active)
- IC50 [2]: 21.4 µM (inactive)
- IC50 [3]: 42.2 µM (inactive)

Structure (SMILES): COc1cc(OC)cc(C(=O)N2CCN(C(=O)COc3ccc4ccccc4c3)CC2)c1
- IC50 [4]: > 80 µM (inactive)

Structure (SMILES): CCC(C)N1CCN(C(=O)COc2ccc3ccccc3c2)CC1 (stereo not given)
- IC50 [4]: > 80 µM (inactive)

Structure (SMILES): O=C(CSc1n[nH]c2c3cc(F)ccc3nc-2n1)NCc1ccc(F)cc1
- IC50 [5]: 119 µM (inactive)
- IC50 [6]: 83.3 µM (inactive)
- IC50 [7]: 1.42 µM (active)

Structure (SMILES): Cc1ccc(C)c(OCCC(=O)Nc2cccc(S(=O)(=O)NC3=NCCCCC3)c2)c1
- IC50 [5]: 98.3 µM (inactive)
- IC50 [6]: 83.3 µM (inactive)
- IC50 [7]: 46.4 µM (inactive)

Structure (SMILES): Cc1ccc(/C=C/C(=O)N2CCC(Cc3ccccc3)CC2)cc1
- IC50 [4]: > 80 µM (inactive)

Structure (SMILES): CN(C)C(=O)CSc1ccc(S(=O)(=O)N2CCCC2)cn1
- IC50 [8]: 20.7 µM (inactive)
- IC50 [9]: 12.9 µM (active)

Structure (SMILES): Cc1ccc2cc(/C=C(\C#N)C(N)=O)c(N3CCCCC3)nc2c1
- EC50 [10]: 50.6 µM (active)
- EC50 [11]: 30.7 µM (inconclusive)
- IC50 [8]: 36.2 µM (inactive)
- IC50 [9]: 18.4 µM (active)

Structure (SMILES): COC(=O)c1ccc(COc2ccc(/C=N/NC(N)=S)cc2)o1
- IC50 [12]: 1.97 µM (active)
- IC50 [13]: 35.9 µM (inactive)
- IC50 [14]: 9.77 µM (active)
- AC50 [15]: 3.63 µM (active)
- EC50 [16]: 1.39 µM (active)
- EC50 [17]: > 60 µM (not active)

Structure (SMILES): C[C@@H]1CN([C@@H](C)CO)S(=O)(=O)c2ccc(C#CC3(O)CCCC3)cc2O[C@@H]1CN(C)C(=O)c1cccnc1
- AC50 [18]: 7.95 µM (active)

Structure (SMILES): Cc1cc(C)n2c(Nc3c(C)cccc3C)c(-c3cccnc3)nc2n1
- IC50 [8]: 16.8 µM (active)
- IC50 [9]: 28.3 µM (inactive)

Structure (SMILES): C[C@@H]1CCCCO[C@@H](CN(C)C(=O)Nc2ccc(C(F)(F)F)cc2)[C@H](C)CN([C@H](C)CO)C(=O)c2cc(NS(=O)(=O)c3ccc(F)cc3)ccc2O1
- AC50 [19]: 23.5 µM (active)
- AC50 [20]: > 70 µM (inactive)
- AC50 [21]: 5.62 µM (active)
